The text below walks through data of patent publication US8143275B2, “Use of triazolopyrimidine derivatives as microbicides” (LANXESS Deutschland GmbH, priority 2001, dated 2012).

Holding throughout (experiment): Inhibitory test with giant colonies of Basidiomycetes
Type in all cases: cell-based
What all share (details): 6 ppm active compound in agar medium, 26° C., compared to medium without active compound

For assay [1], the system named is Gloeophyllum trabeum (P1). Here is the method:
(§1) Inhibitory test with giant colonies of Basidiomycetes
(§2) Mycelium pieces were punched out of colonies of Gloeophyllum trabeum (P1), Coniophora puteana (P2), Poria placenta (P3), Lentinus tigrinus (P4), Coriolus versicolor (P5) and Sterum sanguinolentum (P6) and incubated at 26° C. on an agar medium. The inhibition of the growth of the fungal threads on the active-compound-containing medium (concentration of active compound: 6 ppm) was compared to the longitudinal growth of medium without added active compound and rated in inhibition percent.

A further assay relates to Coriolus versicolor (P5). On the procedure: as §1, §2
In a further assay the test system is Coniophora puteana (P2). On the procedure: as §1, §2
The subject of assay [2] is Sterum sanguinolentum (P6). On the procedure:
as §1, §2

Another assay concerns Lentinus tigrinus (P4). Here is the method:
as §1, §2

The subject of a further assay is Poria placenta (P3). Here is the method:
as §1, §2

On to `Fc1cccc(-c2c(Cl)nc3ncnn3c2NC2CCCC2)c1` [No 1], for which the “P1: inhibition of the growth of the fungal threads” value (shortened to “P1: inhibition”) in assay [1] was determined as 80%. In addition, the “P5: inhibition of the growth of the fungal threads” value (from here on “P5: inhibition”) in the assay with Coriolus versicolor (P5) is 91%. Moreover, the “P2: inhibition of the growth of the fungal threads” value (“P2: inhibition” below) in the assay on Coniophora puteana (P2) came out at 100%.
Turning to `Clc1ccccc1-c1c(Cl)nc2ncnn2c1NC1CCCC1` [No 2], in assay [2], the “P6: inhibition of the growth of the fungal threads” value (“P6: inhibition” below) was determined as 100%. In assay [1], the “P1: inhibition” value was 100%. Also, the “P5: inhibition” value with Coriolus versicolor (P5) worked out at 100%. In addition, in the assay with Lentinus tigrinus (P4), the “P4: inhibition of the growth of the fungal threads” value (“P4: inhibition” for short) turned out to be 94%. Further, in the assay on Coniophora puteana (P2), the “P2: inhibition” value is recorded as 100%.
For `Fc1cccc(F)c1-c1c(Cl)nc2ncnn2c1NC1CCCC1` [No 3], the “P6: inhibition” value in assay [2] stood at 100%. Also, the “P1: inhibition” value in assay [1] is reported as 100%. Moreover, in the assay on Coriolus versicolor (P5), the “P5: inhibition” value turned out to be 100%. For the same molecule, in the assay on Lentinus tigrinus (P4), the “P4: inhibition” value stood at 100%. Also, the “P2: inhibition” value in the assay with Coniophora puteana (P2) is 100%.
For `Fc1cc(F)c(-c2c(Cl)nc3ncnn3c2NC2CCCC2)c(F)c1` [No 4], the “P5: inhibition” value in the assay on Coriolus versicolor (P5) was 100%.
On the same count and under the same terms, for `Clc1nc2ncnn2c(NC2CCCC2)c1-c1ccccc1` [No 5] the value was 100%.
As to `CC(C)Nc1c(-c2ccc(Cl)cc2Cl)c(Cl)nc2ncnn12` [No 6], in assay [2], the “P6: inhibition” value turned out to be 100%. The “P1: inhibition” value in assay [1] is recorded as 95%. Besides, in the assay with Coriolus versicolor (P5), the “P5: inhibition” value is 95%. Further, in the assay with Coniophora puteana (P2), the “P2: inhibition” value was 100%.
On to `Fc1ccccc1-c1c(Cl)nc2ncnn2c1N1CCCCCC1` [No 7], for which the “P6: inhibition” value in assay [2] was 100%. In addition, in assay [1], the “P1: inhibition” value came out at 100%. Also, the “P5: inhibition” value in the assay with Coriolus versicolor (P5) is reported as 100%. The “P4: inhibition” value in the assay with Lentinus tigrinus (P4) was 94%. Moreover, in the assay on Coniophora puteana (P2), the “P2: inhibition” value was determined as 100%.
Regarding `Fc1cccc(F)c1-c1c(Cl)nc2ncnn2c1N1CCCCCC1` [No 8], the “P6: inhibition” value in assay [2] is listed as 100%. Moreover, the “P1: inhibition” value in assay [1] is 100%. Moreover, in the assay on Coriolus versicolor (P5), the “P5: inhibition” value stood at 100%. Besides, the “P4: inhibition” value in the assay on Lentinus tigrinus (P4) is 100%. In addition, the “P2: inhibition” value with Coniophora puteana (P2) is 100%. Also, the “P3: inhibition of the growth of the fungal threads” value (shortened to “P3: inhibition”) in the assay with Poria placenta (P3) is recorded as 100%.
With `CC1CCN(c2c(-c3c(F)cc(F)cc3F)c(Cl)nc3ncnn23)CC1` [No 9], the “P6: inhibition” value in assay [2] is 100%. Further, the “P1: inhibition” value in assay [1] came to 100%. Moreover, the “P5: inhibition” value in the assay with Coriolus versicolor (P5) came to 100%. Moreover, the “P4: inhibition” value in the assay with Lentinus tigrinus (P4) is on record as 100%. Moreover, the “P2: inhibition” value in the assay on Coniophora puteana (P2) came to 100%. Further, in the assay on Poria placenta (P3), the “P3: inhibition” value was 100%.
As to `CC1CCN(c2c(-c3c(F)cccc3Cl)c(Cl)nc3ncnn23)CC1` [No 10], the “P6: inhibition” value in assay [2] stood at 100%. The “P1: inhibition” value in assay [1] is listed as 100%. For the same molecule, the “P5: inhibition” value in the assay on Coriolus versicolor (P5) turned out to be 100%. In addition, the “P4: inhibition” value with Lentinus tigrinus (P4) is listed as 100%. The “P2: inhibition” value with Coniophora puteana (P2) is recorded as 100%. Besides, in the assay on Poria placenta (P3), the “P3: inhibition” value is given as 100%.
On to `C[C@H](Nc1c(-c2c(F)cc(F)cc2F)c(Cl)nc2ncnn12)C(F)(F)F` [No 11], for which the “P6: inhibition” value in assay [2] came to 100%. In addition, in assay [1], the “P1: inhibition” value worked out at 100%. Further, the “P5: inhibition” value with Coriolus versicolor (P5) turned out to be 100%. The “P4: inhibition” value in the assay with Lentinus tigrinus (P4) amounted to 100%. Moreover, the “P2: inhibition” value in the assay with Coniophora puteana (P2) was 100%. For the same molecule, in the assay with Poria placenta (P3), the “P3: inhibition” value amounted to 100%.
